Values of other authors in patent US20230151225A1, “BLENDING ZINC […] BASE MATERIALS IN ORDER TO CREATE QUICKLY APPLIED ANTI-MICROBIAL SURFACES” (CAO Group, Inc., priority 2020, published 2023).

Substance: zinc pyrithione
- solubility in water: 8 ppm
